The source of these data is patent US7402684B2, “Biaryl substituted heterocycle inhibitors of LTA4H for treating inflammation” (deCODE genectics ehf., priority 2005, dated 2008).

Structures can show the parent of a compound that is named as a salt.

Experiment [1] has as its target T1, recombinant human LTA4 hydrolase (Homo sapiens, UniProt P09960).
T1 construct: A human LTA4 hydrolase full-length cDNA clone (NM_000895) was purchased from OriGene Technologies; made in house; host or cells: Escherichia coli BL21-AI
T1 sequence (P09960 1-611): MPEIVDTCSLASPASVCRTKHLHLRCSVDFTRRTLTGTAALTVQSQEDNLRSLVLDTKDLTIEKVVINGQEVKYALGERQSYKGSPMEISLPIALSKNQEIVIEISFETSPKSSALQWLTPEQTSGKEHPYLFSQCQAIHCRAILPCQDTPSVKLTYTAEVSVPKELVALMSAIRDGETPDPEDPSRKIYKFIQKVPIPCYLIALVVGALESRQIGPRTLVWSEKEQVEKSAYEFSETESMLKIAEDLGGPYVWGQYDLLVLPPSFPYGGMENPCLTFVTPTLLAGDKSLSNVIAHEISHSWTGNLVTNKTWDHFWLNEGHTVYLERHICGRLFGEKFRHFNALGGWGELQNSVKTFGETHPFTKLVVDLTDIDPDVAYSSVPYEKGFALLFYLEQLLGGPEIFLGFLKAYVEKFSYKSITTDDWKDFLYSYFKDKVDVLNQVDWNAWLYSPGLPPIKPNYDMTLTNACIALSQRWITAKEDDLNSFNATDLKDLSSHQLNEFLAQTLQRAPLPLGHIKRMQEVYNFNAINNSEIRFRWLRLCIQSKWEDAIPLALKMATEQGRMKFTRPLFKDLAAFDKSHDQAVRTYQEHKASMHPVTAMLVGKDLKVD
The experiment in a line: In vitro assay testing inhibitory activity against purified recombinant human LTA4 hydrolase (LTB4 formed measured by LC-MS/MS). The settings on record: purified recombinant human LTA4 hydrolase 200 nM, LTA4 2 μM, 120 sec at room temperature; read-out: AvgIC50. Format: biochemical.
Method: The compounds of the invention were incubated in a series of dilutions with 200 nM of recombinant enzyme in assay buffer (100 mM Tris-HCl, 100 mM NaCl, 5 mg/ml fatty-acid free BSA, 10% DMSO, pH 8.0) for 10 min at room temperature to allow binding between LTA4 hydrolase and the inhibitors. LTA4 was prepared by alkaline hydrolysis of LTA4 methyl ester (Biomol, Plymouth Meeting, Pa., or Cayman Chemicals, Ann Arbor, Mich.). A solution of 10 μg of the ester was dried under a nitrogen stream and redissolved in 60 μl of a solution of 80% acetone and 20% 0.25 M NaOH. After incubation for 40 min at room temperature the resulting approximately 500 mM tock of LTA4 was kept at −80° C. for no more than a few days prior to use.
Immediately before the assay, LTA4 was diluted to a concentration of 10 μM in assay buffer (without DMSO) and added to the reaction mixture to a final concentration of 2 μM to initiate the enzyme reaction. […] The samples were then kept at 4° C. overnight to complete protein precipitation and centrifuged for 15 min at 1800 g.

Experiment [2] has as its system human whole blood. Kind of experiment: Ex vivo assay testing inhibitory activity in human whole blood after stimulation with calcium ionophor (LTB4 by ELISA). It is filed as cell-based. The settings on record: 0.5 h, Ionomycin 20 μM, 30 min at 37° C., read-out: hWBIC50. On the technique in general: In an ELISA, binding on a coated surface is turned into a signal by an enzyme label.
Method: (2) Ex vivo assay testing inhibitory activity in human whole blood after stimulation with calcium ionophor.
Human blood was collected in heparin-containing Vacutainer tubes. […] Then 4 μl of a series of compound dilutions (in DMSO) were added, followed by a 15 min incubation at 37° C. with gentle shaking. After that, blood samples were stimulated by adding Ionomycin (Calbiochem) to a final concentration of 20 μM. After another incubation at 37° C. for 30 min, samples were centrifuged for 5 min at 1800 g and 4° C. Supernatants were taken and LTB4 concentrations were determined using a commercially available enzyme-linked immunosobentassay (R&D Systems, Minneapolis, Minn.) according to the manufacturer's instructions.

The test system of experiment [3] is colitis symptoms. The settings on record: eight weeks of treatment; cited from earlier work.

As for `O=C(O)CN1CCC[C@H]1COc1ccc(Cc2ccccc2)cc1` [Example 35, [(S)-2-(4-Benzyl-phenoxymethyl)-pyrrolidin-1-yl]-acetic acid TFA salt], the IC50 in experiment [1] lay within 5 to 20 µM.

Take `Cc1ccc(Oc2ccc(OC[C@@H]3CCCN3CCCC(=O)O)cc2)cc1` [Example 37, 4-[(S)-2-(4-p-Tolyloxy-phenoxymethyl)-pyrrolidin-1-yl]-butylic acid HCl]: the IC50 in experiment [1] was less than 5 µM.

With `c1csc(-c2ccc(Cc3ccc(OC[C@@H]4CCCN4)cc3)cc2)c1` [Example 117, (S)-2-[4-(2-thiophen-benzyl)-phenoxymethyl]-pyrrolidine hydrogen chloride salt], the IC50 in experiment [1] and in experiment [2] was less than 5 µM in each case.

As to `CN(CCCOc1ccc(Cc2ccccc2)cc1)CCC(=O)O.Cl` [SC57461], the “colitis symptoms in a primate model” value in experiment [3] is “significantly improved colitis symptoms”.
